The values below come from patent US20250122223A1, “HETEROCYCLIC COMPOUNDS AS UBIQUITIN SPECIFIC PROTEASE 7 INHIBITORS” (ALMAC DISCOVERY LIMITED, priority 2022, published 2025).

Values after ≈ are worked out from the molar mass of the structure shown.

The nature of data set [1]: CLint/CLhep estimates using liver microsomes (human). It counts as in vitro ADME. The method, then:
(§1) Test compounds (final concentration=1 μM; final DMSO concentration=0.1%) were incubated in 0.1M phosphate buffer pH 7.4 with liver microsomes (human, mouse, rat or dog; 0.5 mg of protein/mL) at 37° C. Reactions were started by addition of NADPH in 0.1M phosphate buffer pH 7.4 (final concentration 1 mM). 40 μL aliquots were removed at 3, 6, 10, 15, 20, 30, 40 and 50 minutes. Reactions were quenched in 80 μL of ice-cold methanol. Samples were subsequently frozen overnight then centrifuged at 3500 rpm for 20 minutes at 4° C. The supernatants were removed and transferred into analytical plates and analysed by LC/MS/MS.
(§2) All samples were analysed on a Waters Acquity I-Class coupled to a Waters Xevo TQD mass spectrometer. A Waters BEH C18 2.1×50 mm 1.7 μm column was used and mobile phases were water and methanol containing 0.1% formic acid as modifier. Analysis was by multiple reaction monitoring and conditions were optimised for each test compound.
(§3) From a plot of In peak area against time, the gradient of the line is determined.
(§4) Subsequently, half-life and intrinsic clearance are calculated using the equations below: […]
(§5) The CLhep was calculated as follows: […]
(§6) Where CLint (mL/min/kg) is the intrinsic clearance scaled to a whole liver and Qh is hepatic liver blood flow.

The target of data set [2] is T1, USP7 (Homo sapiens (Human), UniProt Q93009). The data set is described as follows: USP7 fluorescence polarisation (FP) assay with ubiquitin-Lys-TAMRA substrate. It counts as biochemical.
Data set [3] can be described thus: CLint/CLhep estimates using liver microsomes (dog). Format: in vitro ADME. Here is the method:
as §1, §2, §3, §4, §5, §6

Data set [4] in a line: CLint/CLhep estimates using liver microsomes (mouse). Format: in vitro ADME. The method, then:
as §1, §2, §3, §4, §5, §6

Data set [5] is described as follows: Kinetic solubility in PBS buffer. It counts as physicochemical. Particulars: aqueous buffer, kinetic from dmso stock; PBS buffer pH 7.4. Here is the method: Test compounds (5 μL; 10 mM DMSO stock) were added to 245 μL of PBS buffer pH 7.4 (Dulbecco A) in a Millipore MultiScreen® Solubility Filter plate and mixed at 300 rpm at room temperature on a plate shaker for 90 minutes. Meanwhile 5-points calibration curves for each compound were established in a mixture of acetonitrile/PBS buffer (top concentration 200 μM). After filtration and matrix match, the calibration and assay plates were analysed on a BMG Labtech CLARIOstar plate reader (240-400 nm). Final concentration of the test compound in the filtrate was calculated using the slope of the calibration curve.

Data set [6] can be described thus: Pharmacokinetic (PK) parameters in mouse. It counts as in vivo, BALB/c mouse.
A short description of data set [7]: CLint/CLhep estimates using liver microsomes (rat). It counts as in vitro ADME. Here is the method: as §1, §2, §3, §4, §5, §6
For data set [8], the target named is T1, USP7. The data set is described as follows: Target engagement assay-HTRF, competition with HA-Ub-VPS probe in HEK293 cells stably expressing Flag-tagged USP7. It counts as cell-based. The settings on record: HEK293 stable clone M6C5, 2 h treatment; read-out: Cellular target engagement: HEK293 Stable clone M6C5 USP7 IC50. Here is the method:
HEK293 cells stably expressing Flag-tagged USP7 were treated with vehicle (DMSO) or compound (using 50 μM starting concentration and 11 dp using 1:3 serial dilution) for 2 h and subsequently lysed on ice and homogenised. Cell lysate and HA-Ub-VPS probe was then added to a white flat bottomed 384 well plate (Greiner) to a total volume of 10 μL and incubated for 40 min. 10 μL of D2 and Tb detection antibodies were subsequently added to give a final assay volume of 20 μL. Following incubation, HTRF were measured using a Pherastar FSX (BMG Labtech) exciting at 337 nm and measuring the emission at 620/665 nm. The HTRF ratiometric signal was derived and subsequently normalised to the lysate only controls. Data were plotted and fitted, and the concentrations resulting in 50% inhibition (IC50) were calculated using the non-linear regression curve fitting model using GraphPad Prism. IC50 values for the inhibitors of the invention are compiled in Table 1 above and represent the average of at least duplicate experiments.

T1 sequence (Q93009 whole entry): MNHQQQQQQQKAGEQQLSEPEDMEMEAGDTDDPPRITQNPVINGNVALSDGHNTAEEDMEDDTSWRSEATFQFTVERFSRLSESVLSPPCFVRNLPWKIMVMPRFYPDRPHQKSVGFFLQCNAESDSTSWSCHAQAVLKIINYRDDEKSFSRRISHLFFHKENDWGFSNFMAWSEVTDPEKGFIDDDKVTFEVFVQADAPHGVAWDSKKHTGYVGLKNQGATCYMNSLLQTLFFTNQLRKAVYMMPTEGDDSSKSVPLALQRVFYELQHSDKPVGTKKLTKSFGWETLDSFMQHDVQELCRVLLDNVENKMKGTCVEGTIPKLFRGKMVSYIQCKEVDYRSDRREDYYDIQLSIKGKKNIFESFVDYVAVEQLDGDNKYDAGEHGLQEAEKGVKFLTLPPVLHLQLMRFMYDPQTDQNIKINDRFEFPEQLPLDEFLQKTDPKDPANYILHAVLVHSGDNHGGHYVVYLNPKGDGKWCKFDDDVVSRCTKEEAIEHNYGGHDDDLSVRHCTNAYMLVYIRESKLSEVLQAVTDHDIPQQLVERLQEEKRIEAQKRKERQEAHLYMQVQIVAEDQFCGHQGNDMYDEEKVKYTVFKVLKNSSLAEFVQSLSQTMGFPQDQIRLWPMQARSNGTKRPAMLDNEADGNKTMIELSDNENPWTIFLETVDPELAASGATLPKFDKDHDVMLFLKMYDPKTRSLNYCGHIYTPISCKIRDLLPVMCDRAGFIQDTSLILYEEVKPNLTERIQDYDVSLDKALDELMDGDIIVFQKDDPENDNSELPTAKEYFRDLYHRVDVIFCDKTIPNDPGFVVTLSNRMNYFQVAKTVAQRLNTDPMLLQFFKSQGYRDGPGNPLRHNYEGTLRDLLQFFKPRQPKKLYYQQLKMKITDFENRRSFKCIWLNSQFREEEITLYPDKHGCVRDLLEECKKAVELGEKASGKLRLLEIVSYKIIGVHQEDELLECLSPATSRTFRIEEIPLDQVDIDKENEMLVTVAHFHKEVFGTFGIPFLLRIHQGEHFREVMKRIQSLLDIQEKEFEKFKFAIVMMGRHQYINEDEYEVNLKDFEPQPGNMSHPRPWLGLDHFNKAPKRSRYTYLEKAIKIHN

For `C[C@H]1CN[C@H](c2ccc(-n3c(Cl)cc4c(=O)n(CC5(O)CCN(C(=O)[C@]6(C)C[C@H]6C(F)(F)F)CC5)cnc43)cc2)CO1` (single isomer, unassigned) [Example 32, 6-Chloro-3-((4-hydroxy-1-((1S,2S)-1-methyl-2-(trifluoromethyl)cyclopropane-1-carbonyl)piperidin-4-yl)methyl)-7-(4-((3R,6S)-6-methylmorpholin-3-yl)phenyl)-3,7-dihydro-4H-pyrrolo[2,3-d]pyrimidin-4-one or 6-chloro-3-((4-hydroxy-1-((1R,2R)-1-methyl-2-(trifluoromethyl)cyclopropane-1-carbonyl)piperidin-4-yl)methyl)-7-(4-((3R,6S)-6-methylmorpholin-3-yl)phenyl)-3,7-dihydro-4H-pyrrolo[2,3-d]pyrimidin-4-one], the “Liver Microsomes: CLhep Human” value in data set [1] is on record as 5.8 mL/min/kg. The IC50 is 0.048 µM at USP7 [2] (average of at least duplicate experiments, read-out: Biochemical: USP7 IC50); less than 0.1 µM on USP7 [2] (biochemical inhibition, read-out: USP7 IC50 activity (Table 3a, classes)); 0.048 µM at USP7 [2] (biochemical inhibition, unit not given in Table 3b (Table 1 and key of Table 3a use μM), read-out: USP7 IC50 activity (Table 3b)); 130 nM at USP7 [8]. For the same molecule, in data set [3], the “Liver Microsomes: CLhep Dog” value is reported as 4.5 mL/min/kg. Also, the “Liver Microsomes: CLhep Mouse” value in data set [4] is 11.5 mL/min/kg. For the same molecule, in data set [5], the kinetic solubility at 90 min amounted to 197 µM (≈ 120 µg/mL). For the same molecule, in data set [6] (BALB/c mouse IV 1 mg/kg), the CLb was 28.2 mL/min/kg. The molecule further showed a F in data set [6] (BALB/c mouse PO 3 mg/kg) of 116%. In addition, the AUC(0-inf) in data set [6] (blood, BALB/c mouse IV 1 mg/kg) amounted to 591 ng·h/mL; in data set [6] (blood, BALB/c mouse PO 3 mg/kg), 2100 ng·h/mL. The same molecule showed a half-life in data set [6] (blood, BALB/c mouse IV 1 mg/kg) of 3.5 h. For the same molecule, in data set [6] (blood, BALB/c mouse IV 1 mg/kg, read-out: Vss), the Vd turned out to be 5.49 L/kg. Also, in data set [7], the “Liver Microsomes: CLhep Rat” value is reported as 6.5 mL/min/kg.

A word on the IC50: it is the point on the concentration scale where inhibition reaches its midpoint. For orientation: solubility (kinetic) means solubility judged after dilution from a stock solution rather than from solid. Usually AUC(0-inf) stands for the area under the concentration-time curve extrapolated to infinity. One may read the half-life as how long it takes for the measured level to halve.
